Measured values: PubChem BioAssay (NCI)
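Briefly, cells in 96-well plates were exposed to five compound concentrations for 48 h, and endpoints were estimated by linear interpolation. At the TGI there is no net growth.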

What was measured:
Experiment in all cases: NCI tumour cell line growth inhibition, 48 h
SK-OV-3 ovarian = test system: SK-OV-3 ovarian
CCRF-CEM leukemia = test system: CCRF-CEM leukemia
NCI/ADR-RES ovarian = test system: NCI/ADR-RES ovarian
SN12C renal = test system: SN12C renal
SNB-19 CNS = test system: SNB-19 CNS

SMILES | TGI (SK-OV-3 ovarian) | TGI (CCRF-CEM leukemia) | TGI (NCI/ADR-RES ovarian) | TGI (SN12C renal) | TGI (SNB-19 CNS)
O=[N+]([O-])/C=C1\COCc2cc3c(cc21)OCO3 | > 100 µM | 39.1 µM | 43.4 µM | 47.2 µM | –
Cc1n[nH]c(=O)c2cc(-c3ccccc3)[nH]c12 | > 100 µM | > 100 µM | > 100 µM | > 100 µM | > 100 µM
O=c1oc2ccccc2cc1/C=N/N1C(=S)N(c2ccccc2)C(=Nc2ccccc2)C1=Nc1ccccc1 | > 100 µM | – | > 100 µM | > 100 µM | > 100 µM
Cc1ccc(-c2nc3ccc(Cl)cc3[nH]2)cc1 | > 100 µM | > 100 µM | > 100 µM | > 100 µM | > 100 µM
CCOC(=O)c1sc2c(c1OC(=O)c1cccs1)c(=O)n(-c1ccccc1)c(=S)n2-c1ccccc1 | 42.9 µM | 36 µM | 31.4 µM | 42 µM | 88.5 µM
CC1CC[C@@H](C(C)C)[C@H](Oc2nnc(C3OC(CO)C(O)C3O)o2)C1 (some centres not stated) | > 100 µM | > 100 µM | > 100 µM | > 100 µM | > 100 µM
CC1(C)CS(=O)(=O)CC(C)(C)C(=N/N)/C1=N\N | > 100 µM | – | > 100 µM | > 100 µM | > 100 µM
Fc1ccc2nc3n(c2c1)C(c1c(F)cccc1F)SC3 (configuration not stated) | > 100 µM | – | > 100 µM | > 100 µM | > 100 µM
COc1cccc(/C=C2/Sc3scc(-c4ccccc4)[n+]3C2=O)c1O | 70.4 µM | 30.4 µM | 42.3 µM | 36.8 µM | 67 µM
CN(C)c1ccc(N=Nc2ccc3nc[nH]c3c2)cc1 | – | > 100 µM | > 100 µM | 71 µM | > 100 µM
COc1ccc(N2C(=O)C3c4[nH]c5ccc(C)cc5c4C4CCC(C)CC4C3C2=O)cc1 (configuration not stated) | > 100 µM | > 100 µM | > 100 µM | > 100 µM | > 100 µM
N#CC(C#N)=Cc1ccc2c(c1)OC(Cl)O2 (configuration not stated) | 61.5 µM | > 100 µM | > 100 µM | 51.2 µM | 66.4 µM
CC12Nc3ccccc3N1C(=O)c1ccccc12 (configuration not stated) | > 100 µM | > 100 µM | > 100 µM | > 100 µM | > 100 µM
COc1ccc(NC(=O)CC(=O)N2N=C(C)C(N=Nc3ccc(S(=O)(=O)c4ccc(N=NC5C(=O)N(C(=O)CC(=O)Nc6ccc(OC)cc6)N=C5C)cc4)cc3)C2=O)cc1 (configuration not stated) | > 100 µM | > 100 µM | > 100 µM | > 100 µM | > 100 µM
Cc1ccc(/C=N/Nc2cnccn2)s1 | > 100 µM | > 100 µM | > 100 µM | > 100 µM | > 100 µM
COCn1c2ccc(OC(C)=O)cc2c2c(=O)oc(N(C)C)nc21 | > 100 µM | > 100 µM | > 100 µM | > 100 µM | > 100 µM
COc1ccc(NS(=O)CCCc2ccccc2)cc1 (configuration not stated) | – | > 100 µM | > 100 µM | > 100 µM | > 100 µM

SMILES | TGI (SK-OV-3 ovarian) | TGI (CCRF-CEM leukemia) | TGI (NCI/ADR-RES ovarian) | TGI (SN12C renal) | TGI (SNB-19 CNS)
CSc1nc(N)c(NC2OC(CO)C(O)C2O)c(=O)[nH]1 (configuration not stated) | > 100 µM | > 100 µM | > 100 µM | > 100 µM | > 100 µM
COC(=O)c1ccc2c(O)c(O)ccc2c1 | 38.7 µM | > 27 µM | 48.1 µM | 23 µM | 27.5 µM
O=c1cc(-c2cccc(Cl)c2)[nH]c2ncccc12 | > 100 µM | > 100 µM | > 100 µM | 30.5 µM | 24.1 µM
CC(=O)Nc1ccccc1SCCSSCCSc1ccccc1NC(C)=O | 61.7 µM | 70.4 µM | 94.8 µM | > 100 µM | 36.7 µM
O=C(NNC1=NCCN1)c1ccco1 | > 100 µM | > 100 µM | > 100 µM | > 100 µM | > 100 µM
[N-]=[N+]=Nc1c(-c2ccccc2)c(Cl)nc2ccccc12 | > 100 µM | > 100 µM | > 100 µM | > 100 µM | > 100 µM
CCC1C(c2cc(OC)c(OC)c(OC)c2)c2cc3c(cc2OC1N1CCCC1)OCO3 (configuration not stated) | 26.6 µM | 11.9 µM | 7.03 µM | 31.8 µM | 24 µM
O=C(O[C@H]1[C@@H](O)[C@H](n2cnc3c(Cl)ncnc32)O[C@@H]1COC(c1ccccc1)(c1ccccc1)c1ccccc1)c1ccccc1 | > 100 µM | > 100 µM | > 100 µM | 30.6 µM | > 100 µM
COc1cc(/C=C2/CCS(=O)(=O)c3ccc(C)cc3C2=O)cc(OC)c1OC | 37.8 µM | > 100 µM | > 28.6 µM | 21.9 µM | > 34.8 µM
NNC(=O)c1ccc(-n2nnc(C(=O)NN)c2C(=O)NN)cc1 | – | > 100 µM | > 100 µM | > 100 µM | > 100 µM
COc1ccc(-c2c(N)n(-c3nc4ccccc4s3)c(=O)c3cc([N+](=O)[O-])ccc23)cc1 | 33 µM | > 100 µM | 78.1 µM | – | > 100 µM
CC1CCCc2c(C#N)c(N)nc(-c3ccc(Cl)cc3)c21 (configuration not stated) | > 100 µM | > 100 µM | > 100 µM | 38.2 µM | > 100 µM
O=C1C2CC=CCC2C(=O)N1n1c(-c2ccccc2)n[nH]c1=O (configuration not stated) | > 100 µM | > 100 µM | > 100 µM | > 100 µM | > 100 µM
Cc1ccc(N2C(=O)C3c4[nH]c5ccccc5c4C4CCC(C(C)(C)C)CC4C3C2=O)cc1 (configuration not stated) | 28.2 µM | 15.4 µM | 31.8 µM | 24.7 µM | 21.2 µM
C=CCOC(=O)/C(=C\c1ccc(OC)c(OC)c1)c1ccc(OC)c(OC)c1 | > 100 µM | > 100 µM | > 100 µM | > 100 µM | > 100 µM
COC(=O)[C@@H]1CN(C(=O)CCc2ccccc2)C(=O)N1C(=O)OCc1ccccc1 | > 100 µM | > 100 µM | > 100 µM | > 100 µM | > 100 µM
